Test results reported in PMC3179850 (Bioorganic & medicinal chemistry letters, 2009).

Assays:
HIV-1 protease = HIV-1 protease (Human immunodeficiency virus type 1 group M subtype B, UniProt P04585); test: HIV-1 protease enzyme inhibitory assay; assay type: biochemical
HIV-1MDR/JSL (R5) = test: microbe, parasite or virus in culture; assay type: cell-based
HIV-1MDR/C (X4) = assay type: cell-based
HIV-1MDR/TM (X4) = assay type: cell-based
HIV-1MDR/MM (R5) = assay type: cell-based
HIV-1MDR/G (X4) = assay type: cell-based

`Cc1cc(CO)ccc1CNC(=O)[C@H]1N(C(=O)[C@@H](O)[C@H](Cc2ccccc2)NC(=O)O[C@H]2CO[C@H]3OCC[C@H]32)CSC1(C)C` [Inhibitor 16c] was tested, and the “enzyme inhibitory activity (in words)” value (HIV-1 protease) was “sub-nanomolar”.
In the case of `Cc1ccccc1CNC(=O)[C@H]1N(C[C@@H](O)[C@H](Cc2ccccc2)NC(=O)O[C@H]2CCOC2)CSC1(C)C` [Inhibitor 14a], the “reduction in enzyme inhibitory activity” value (HIV-1 protease; relative to corresponding inhibitor 3a) is reported as “over 400 fold”.
With `CC(C)CN(C[C@@H](O)[C@H](Cc1ccccc1)NC(=O)O[C@H]1CCOC1)S(=O)(=O)c1ccc(N)cc1` [APV, Amprenavir, reference compound] the IC50 (HIV-1MDR/JSL (R5); Human immunodeficiency virus 1) was 0.531 ± 0.069 µM.
In the case of `Cc1ccccc1CNC(=O)[C@H]1N(C(=O)[C@@H](O)[C@H](Cc2ccccc2)NC(=O)O[C@H]2CO[C@H]3OCC[C@H]32)CSC1(C)C` [Inhibitor 3b], the potency over amprenavir (HIV-1MDR/C (X4)) is reported as ≥ 5 fold, the potency enhancement (HIV-1 protease; with respect to 3a, enzyme inhibition) is reported as “over 40 fold” and the potency over amprenavir (HIV-1MDR/TM (X4)) is reported as ≥ 5 fold. The potency over amprenavir (HIV-1MDR/MM (R5)) was ≥ 5 fold, the potency over amprenavir (HIV-1MDR/JSL (R5); HIV-1MDR/JSL) was “over 2 fold” and the potency over amprenavir (HIV-1MDR/G (X4)) was ≥ 5 fold.
